Patent publication US6355823B1 (Board of Regents, The University of Texas System, priority 1999, dated 2002)
“And” between values parts separate entries of the source, which are not always exact repeats. Identical values can stand only once. Like-named read-outs stand apart in the source and are kept apart here.

Assays:
[1] = system: rats with normal renal function; experiment: Second 2-week study of 2′-PP in drinking water (FIG. 10, 11); assay type: in vivo, rat
Method: Serum phosphate again decreased in a 2′-PP concentration-dependent manner immediately after its addition to the rats' drinking water. After 2 weeks on 2′-PP, serum phosphate was reduced to between 1.8 mM on 1 μM 2′-PP and 1.2 mM at 25 μM 2′-PP. […] This decrease in serum calcium may be related to a slight volume expansion. The rats receiving 5 μM or higher concentrations of 2′-PP drank 2-4 times more water than normal for the first 4 days of the study. After the first 4 days, water consumption returned to normal.

[2] = Radioactivity in urine, stool, kidney and liver after [3H]2′-PP; assay type: in vivo, rat
Method: (§1) Ten rats with normal renal function were treated with varied amounts of [^3H]2′-PP by gavage for seven days. The 2′-PP was given once/day in a solution containing 270 mM sucrose and 10 mM Tris-Cl pH 7.4. Blood was withdrawn 1, 4, and 7 days from the start of the treatment and analyzed for serum phosphate and serum calcium, with the results shown in Table 1. A second, one-week trial was performed adding 2′-PP to the drinking water. Blood was withdrawn at 1, 4 and 7 days and assayed for calcium and phosphate. Dietary phosphorus was increased from 0.9% to 5% for one week, and the experiment repeated at the elevated dietary phosphorus with 2′-PP added to the drinking water for an additional two weeks. The amount of radioactivity in the urine and stool as examined. After two weeks, the animals were sacrificed, and the kidney and liver were examined for radioactivity.
After 4 weeks on 2′-PP, the rats were sacrificed and their kidneys and liver examined for radioactivity. […] A crude estimate of 2′-PP turnover time was calculated from the amount of radioactivity in the stool after administration of [^3H]2′-PP was discontinued; and the 2′-PP half-life was estimated as 12±1 hr.

[3] = system: rats on a 0.9% phosphorus diet; experiment: Serum phosphate after withdrawal of 2′-PP (in vivo half-life); parameters: species or system rat
Method: Rats on a 0.9% phosphorus diet were given 10 μM [^3H]2′-PP in their water for 2 weeks. Serum phosphate and calcium were determined by spectrophotometric assays. Following the experimental period, 2′-PP was removed from the water, and the stool was examined for radioactivity at days 1, 3, 5 and 8, and serum phosphate was examined.
The apparent half-time to return to normal serum phosphate levels was approximately 3 days. […] During this maturation period, crypt cells express the intestinal brush border membrane Na/phosphate co-transporter.

[4] = target: intestinal brush border membrane alkaline phosphatase (Oryctolagus cuniculus, UniProt G1SXE4); experiment: biochemical; assay type: biochemical
[5] = target: T1, intestinal Na/phosphate co-transporter (Oryctolagus cuniculus, UniProt G1SIP4); experiment: Na-dependent [32P]phosphate uptake by rabbit intestinal brush border membrane (BBM) vesicles; conditions: for type of inhibition of Na-dependent phosphate uptake: Dixon plot, with respect to phosphate
T1 sequence (G1SIP4 1-715): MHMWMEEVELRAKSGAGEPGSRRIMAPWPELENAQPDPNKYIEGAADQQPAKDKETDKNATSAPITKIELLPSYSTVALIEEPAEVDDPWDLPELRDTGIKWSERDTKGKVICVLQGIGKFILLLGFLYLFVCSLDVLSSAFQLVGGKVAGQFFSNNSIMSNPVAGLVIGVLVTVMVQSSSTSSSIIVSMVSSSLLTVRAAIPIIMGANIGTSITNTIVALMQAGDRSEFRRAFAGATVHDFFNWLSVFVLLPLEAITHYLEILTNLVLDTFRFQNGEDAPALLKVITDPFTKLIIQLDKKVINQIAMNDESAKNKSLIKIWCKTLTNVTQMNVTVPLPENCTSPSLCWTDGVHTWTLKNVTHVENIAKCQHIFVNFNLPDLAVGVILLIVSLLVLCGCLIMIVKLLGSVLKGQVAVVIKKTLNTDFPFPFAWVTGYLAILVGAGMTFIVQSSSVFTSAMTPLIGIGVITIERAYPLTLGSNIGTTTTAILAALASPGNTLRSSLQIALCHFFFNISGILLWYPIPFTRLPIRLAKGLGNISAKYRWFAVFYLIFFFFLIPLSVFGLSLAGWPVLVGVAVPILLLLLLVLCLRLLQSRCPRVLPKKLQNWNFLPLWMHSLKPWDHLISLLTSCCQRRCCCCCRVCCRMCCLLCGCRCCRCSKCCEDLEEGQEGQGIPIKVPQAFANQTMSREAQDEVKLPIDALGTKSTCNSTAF

[6] = system: rats with normal renal function; experiment: Effect of 2′-PP on rat survival, serum phosphate and serum calcium (Table 1 study); assay type: in vivo; conditions: for Serum calcium / Serum phosphate: seven days after beginning treatment
Method: as §1
Serum calcium levels (2.1 mM±0.18 mM) remained unchanged (7% fluctuation compared to 3% error in duplicate determinations) on both the normal and high phosphate diets irrespective of 2′-PP concentration. […] Serum phosphate was 2.5±0.2 mM prior to administration of 2′-PP (n=12). […] Rats on the high phosphate diet required higher 2′-PP concentrations to achieve the same results, however, similar decreases in serum phosphate were seen. […] At 10 μM 2′-PP, rats on the high phosphorus diet had serum phosphate levels below that seen in untreated rats on the normal phosphate diet.
The values given are measured seven days after beginning treatment with the indicated 2′-PP concentration. Results are from duplicate rats and assayed in triplicate.

[7] = target: T2, intestinal BBM Na/phosphate co-transporter (Oryctolagus cuniculus, UniProt G1SIP4)
T2 sequence (G1SIP4 25-715): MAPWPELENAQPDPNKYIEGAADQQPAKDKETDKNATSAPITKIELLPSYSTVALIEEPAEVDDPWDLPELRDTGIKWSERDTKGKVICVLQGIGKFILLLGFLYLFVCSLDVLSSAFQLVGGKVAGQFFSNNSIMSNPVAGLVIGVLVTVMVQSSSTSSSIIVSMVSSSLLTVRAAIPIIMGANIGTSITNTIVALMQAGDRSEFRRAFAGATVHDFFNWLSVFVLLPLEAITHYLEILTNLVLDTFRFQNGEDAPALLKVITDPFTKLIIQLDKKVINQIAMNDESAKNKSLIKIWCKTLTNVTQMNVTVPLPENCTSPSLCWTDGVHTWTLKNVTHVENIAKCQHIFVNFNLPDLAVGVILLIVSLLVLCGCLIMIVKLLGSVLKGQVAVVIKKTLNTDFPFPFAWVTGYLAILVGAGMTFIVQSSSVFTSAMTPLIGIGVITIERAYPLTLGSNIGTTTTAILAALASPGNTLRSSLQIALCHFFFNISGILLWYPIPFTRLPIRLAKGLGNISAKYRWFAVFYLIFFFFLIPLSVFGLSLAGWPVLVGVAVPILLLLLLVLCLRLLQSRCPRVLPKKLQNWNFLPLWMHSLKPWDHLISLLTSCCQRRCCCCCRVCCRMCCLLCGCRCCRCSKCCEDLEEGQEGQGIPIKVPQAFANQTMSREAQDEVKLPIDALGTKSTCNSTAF

[8] = system: intestinal Na/phosphate co-transporter; experiment: [3H]AZPP photolabeling of Ca-BBM protein, papain digest and immunoprecipitation; assay type: binding
Method: Ca-BBM protein (1.8 nmoles 2′-PP binding sites as determined from 9 pmoles [^3H]2′-PP bound/mg protein) was labeled with [^3H]AZPP (1 minute incubation with 10 μM [^3H]AZPP at 4° C. in 150 mM NaCl and 10 mM sodium borate pH 7, followed by a 1 minute exposure to visible light). Following centrifugation to remove excess label, BBM protein was digested with papain as previously described in Peerce, B. E. (1995) Biochim. Biophys. Acta. 1239: 11-21 and Peerce, B. E.; Cedilote, M. and Clarke, R. D. (1995) Biochim. Biophys. Acta. 1239: 1-10, and resolved into membrane-retained and soluble peptides. 95% of the radioactivity was in the membrane-retained fraction. SDS-solubilization of the membrane-retained fraction released 85% of the radioactivity.
A polyclonal antibody to the intestinal Na/phosphate co-transporter (KL9.2) developed in the laboratory was used to immunoprecipitate CHAPS-solubilized [^3H]AZPP-labeled Ca-BBM protein. The complex was electrophoresed by SDS-PAGE and stained with Coomassie blue, according to the method of Laemmli, U.K 1970 Nature (Lond.) 227: 680-685. A track was cut into 2 mm slices, and the slices counted for tritium. […] The residual 12%±2%, n=3, of the applied label appeared to be non-specifically associated with lipid (chloroform:methanol extracted).

[9] = 10 μM [3H]2′-PP in water for 2 weeks, then removed
[10] = High Phosphate Diet, [2′-PP] 1 μM
[11] = High Phosphate Diet, [2′-PP] 2 μM
[12] = High Phosphate Diet, [2′-PP] 5 μM
[13] = High Phosphate Diet, [2′-PP] 10 μM
[14] = High Phosphate Diet, [2′-PP] 25 μM
[15] = Normal Phosphate Diet, [2′-PP] 1 μM
[16] = Normal Phosphate Diet, [2′-PP] 2 μM
[17] = Normal Phosphate Diet, [2′-PP] 5 μM
[18] = Normal Phosphate Diet, [2′-PP] 10 μM
[19] = Normal Phosphate Diet, [2′-PP] 25 μM
[20] = four weeks of treatment with 2′-PP

intestinal brush border membrane alkaline phosphatase, sequence (G1SXE4 25-504): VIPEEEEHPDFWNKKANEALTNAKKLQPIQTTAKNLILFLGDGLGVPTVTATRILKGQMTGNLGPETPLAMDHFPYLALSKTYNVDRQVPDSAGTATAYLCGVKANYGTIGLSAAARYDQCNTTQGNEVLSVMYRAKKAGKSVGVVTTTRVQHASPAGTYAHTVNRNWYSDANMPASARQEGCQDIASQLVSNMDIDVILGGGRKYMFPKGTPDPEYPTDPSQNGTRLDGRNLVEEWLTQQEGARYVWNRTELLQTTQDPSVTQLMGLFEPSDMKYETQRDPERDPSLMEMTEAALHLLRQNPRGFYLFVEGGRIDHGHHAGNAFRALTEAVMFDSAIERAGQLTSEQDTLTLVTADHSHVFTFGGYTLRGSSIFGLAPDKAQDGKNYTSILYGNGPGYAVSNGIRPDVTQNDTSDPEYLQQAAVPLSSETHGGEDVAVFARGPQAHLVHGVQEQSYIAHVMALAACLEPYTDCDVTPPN

O=C(CCc1ccc(O)cc1)c1c(O)cc(O)cc1OP(=O)(O)O
water consumption relative to normal ([1]; 5 μM or higher concentrations of 2′-PP, first 4 days of the study): 2-4 times
Serum calcium ([1]; 2′-PP concentrations of 5 μM and higher): significant decrease
Serum phosphate ([1]; after 2 weeks at 25 μM 2′-PP in drinking water): 1.2 mM
Serum phosphate ([1]; after 2 weeks on 1 μM 2′-PP in drinking water): 1.8 mM
radioactivity in the urine, kidney, or the liver ([2]; after 4 weeks on [3H]2′-PP): No measurable radioactivity
permeation across the intestinal membrane ([2]; at the concentrations tested): relatively impermeant
2′-PP half-life (turnover time) ([2]; crude estimate from radioactivity in the stool after [3H]2′-PP was discontinued): 12 ± 1 h
apparent half-time to return to normal serum phosphate levels [3, 9]: approximately 3 days
time for serum phosphate to return to normal (control) level after withdrawal [3, 9]: five
inhibition at 10 µM ([3]; Rattus norvegicus, 10 μM 2′-PP administered daily, read-out: inhibition of the Na/phosphate co-transporter in vivo): ~100%
substrate of alkaline / apical membrane phosphatase [4]: substrate of alkaline phosphatase
type of inhibition of alkaline phosphatase [4]: competitive inhibitor
inhibition at 50 µM ([4]; read-out: inhibition of alkaline phosphatase): 33%
Ki [5]: 0.59 ± 0.08 µM
type of inhibition of Na-dependent phosphate uptake [5]: competitive with respect to phosphate
change in apparent k0.5 for inhibition of Na-dependent [32P]phosphate uptake after pre-incubation with Ca-BBM ([5]; incubations of up to 10 minutes at 23° C.): no measurable change
Serum calcium [6, 10]: 2.1 ± 0.1 mM
Serum phosphate [6, 10]: 4.4 ± 0.2 mM
Serum calcium [6, 11]: 2.1 ± 0.1 mM
Serum phosphate [6, 11]: 3.3 ± 0.2 mM
Serum calcium [6, 12]: 2.1 ± 0.1 mM
Serum phosphate [6, 12]: 2.6 ± 0.1 mM
Serum calcium [6, 13]: 2.1 ± 0.1 mM
Serum phosphate [6, 13]: 2.0 ± 0.04 mM
Serum calcium [6, 14]: 2.0 ± 0.1 mM
Serum phosphate [6, 14]: 1.8 ± 0.08 mM
Serum calcium [6, 15]: 2.1 ± 0.08 mM
Serum phosphate [6, 15]: 2.5 ± 0.1 mM
Serum calcium [6, 16]: 2.1 ± 0.1 mM
Serum phosphate [6, 16]: 2.2 mM and 2.2 ± 0.1 mM
Serum calcium [6, 17]: 2.1 ± 0.05 mM
Serum phosphate [6, 17]: 2.0 ± 0.07 mM
Serum calcium [6, 18]: 2.0 ± 0.1 mM
Serum phosphate [6, 18]: 1.8 ± 0.1 mM
Serum calcium [6, 19]: 2.1 ± 0.1 mM
Serum phosphate [6, 19]: 1.4 mM and 1.4 ± 0.1 mM
change in weight [6, 20]: nor did they suffer any measurable change in weight
rat survival [6, 20]: none of the rats died
Serum calcium levels (remained unchanged) ([6]; normal and high phosphate diets, irrespective of 2′-PP concentration): 2.1 mM
2′-PP bound (kinetic analysis of trace B) [7]: 8.5 pmoles 2′-PP bound/mg protein
2′-PP bound at infinite osmotic strength [7]: 8±0.6 pmoles of 2′-PP bound/mg protein
2′-PP bound in the absence of Na [7]: 0.12±0.005 pmoles 2′-PP bound/mg protein
Hill coefficient nH of Na effect on 2′-PP binding [7]: 1.9±0.25
[3H]2′-PP binding sites [7]: 9 pmoles [^3H]2′-PP bound/mg protein
apparent K0.5 for Na (Na concentration at 50% 2′-PP bound) [7]: 23 ± 3 mM
transport by the Na/phosphate co-transporter [7]: not transported

[N-]=[N+]=Nc1cc(CCC(=O)c2c(O)cc(OP(=O)(O)O)cc2O)ccc1O [AZPP, 1-[2,6-dihydroxy-4-(phosphonooxy)phenyl]-3-(3-azido-4-hydroxyphenyl)-1-propanone]
labeled species on urea gel electrophoresis after papain digestion of SDS soluble protein [8]: single 24 kDa polypeptide
radioactivity released by SDS-solubilization of the membrane-retained fraction [8]: 85%
radioactivity in the membrane-retained fraction after papain digestion ([8]; 10 μM [3H]AZPP, 4° C., 150 mM NaCl, visible light): 95%
labeled species on SDS-PAGE after immunoprecipitation with antibody KL9.2 ([8]; CHAPS-solubilized labeled Ca-BBM protein): single 120-kDa polypeptide
residual applied label non-specifically associated with lipid ([8]; chloroform:methanol extracted, n=3): 12%

O=C(CCc1ccc(O)cc1)c1c(O)cc(NP(=O)(O)O)cc1O [NHPP]
type of inhibition of Na-dependent phosphate uptake [5]: competitive inhibitor
Ki ([5]; read-out: K1 (Kl) for inhibition of Na-dependent phosphate uptake, from replot of Dixon plot slope, phosphate 50, 100, 250 μM, n=3): 6.9 ± 1 µM

Phosphate [reference compound]
IC50 ([7]; read-out: concentration inhibiting 50% of Na-dependent 2′-PP bound to Ca-BBM): 105 ± 15 µM
